These results are taken from US20230181673A1, “TRI-PEPTIDES AND TREATMENT OF METABOLIC, CARDIOVASCULAR AND INFLAMMATORY DISORDERS” (Diapin Therapeutics, LLC, priority 2018, published 2023).

Non-standard residues stand in square brackets, D forms with d. No end group written: not given here.

For assay [1], the system named is blood glucose. Description: OGTT and non-fasting/endpoint blood glucose in WD-fed apoE−/− mice. Format: in vivo. The conditions noted are these: for Endpoint glucose levels, lower by: following a 6 h fast, after 12 weeks, vs WD+H2O; for Non-fasting blood glucose 30 min post-gavage vs pre-gavage, decreased by: routine oral gavage, glycine 0.67, leucine 0.33, DT-109/DT-110 1 mg/g; for Acute OGTT: blood glucose 30 min after glucose with treatment / Acute OGTT: blood glucose at later time points (60-120 min): week 10, overnight fast, oral; for Acute OGTT: blood glucose 30 min after glucose with treatment: glucose 2 mg/g plus glycine 0.67, leucine 0.33, DT-109 or DT-110 1 mg/g; for Acute OGTT: blood glucose at later time points (60-120 min): glucose 2 mg/g plus treatment. From the text:
(§1) Eight-week-old male apolipoprotein E-deficient (apoE−/−) mice (B6.129P2-Apoetm1Unc/J, Stock No.: 002052) were obtained from Jackson Laboratories. Mice were fed Western diet (WD, 42% of calories from fat and 0.2% cholesterol by weight, Envigo TD.88137). After one week of WD feeding, blood was carefully collected from the facial vein to determine baseline plasma levels of total cholesterol (TC). […] All mice were maintained on a 12-hour light/dark cycle and had ad libitum access to food and water. Body weight and food intake were measured every one and three weeks, respectively
At week 10, oral glucose tolerance tests (OGTT) were performed following an overnight fast by administering 2 mg/g of glucose via oral gavage. […] To evaluate the chronic effects of the treatments, mice were administered with glucose alone. […] Then, mice were administered with glucose with (acute) or without (chronic) treatments and blood glucose levels were measured every 30 min for up to 120 min. To assess the effects of the treatments on non-fasting glucose levels, blood was collected from the tip of the tail before routine administration of treatments via oral gavage (pre-gavage) and 30 min afterwards (post-gavage).
OGTT were performed after 12 h fasting.

Assay [2] concerns adipose tissue gene expression. Briefly: qPCR of inflammatory cytokines in epididymal and subcutaneous adipose tissue of WD-fed apoE−/− mice. The assay is classed as in vivo. Particulars: endpoint.
Description: as §1
Total RNA from liver or adipose tissue samples was extracted using QIAGEN's RNeasy kits (QIAGEN). RNA was reverse-transcribed into cDNA with SuperScript III and random primers (Invitrogen). Specific transcript levels were assessed by a real-time PCR system (Bio-Rad) using IQ SYBR Green Supermix (Bio-Rad) and the ΔΔCt threshold cycle method of normalization. Gene expression levels were normalized to glyceraldehyde 3-phosphate dehydrogenase (GAPDH). Primer pairs used for qPCR were obtained from Integrated DNA Technologies and are listed below: […]
A general note: Real-time PCR tracks product formation cycle by cycle.

For the next assay, the system named is liver transcriptome. Format: in vivo, mice. Particulars: for TGFβ signaling and ECM remodeling pathways/genes (RNA-sequencing) / Pro-inflammatory signaling regulator and cytokine genes (NFKB1/2, RELB, CCR1/2/5, TLR1/2/4, TNFRSF1A/9/12, TNFα, CCL2/5) / Key genes regulating FAO (PPARα, PGC1α, ACOX1, CPT2, ACADS/M/L, HADHA/B, ACOT3/4): NASH-diet; for TGFβ signaling and ECM remodeling pathways/genes (RNA-sequencing): liver; for Pro-inflammatory signaling regulator and cytokine genes (NFKB1/2, RELB, CCR1/2/5, TLR1/2/4, TNFRSF1A/9/12, TNFα, CCL2/5) / Key genes regulating FAO (PPARα, PGC1α, ACOX1, CPT2, ACADS/M/L, HADHA/B, ACOT3/4): RNA-sequencing; for Key genes regulating FAO (PPARα, PGC1α, ACOX1, CPT2, ACADS/M/L, HADHA/B, ACOT3/4): confirmed by qPCR and Western blot. On the procedure: Library preparation and sequencing were performed by the U-M DNA Sequencing Core on a NovaSeq 6000 Sequencing System (Illumina). RNA-sequencing and pathway analyses were performed as described.
Total RNA from mouse liver samples was extracted as described above. Library preparation and sequencing were performed by the University of Michigan DNA Sequencing Core. RNA was assessed for quality using the TapeStation (Agilent, Santa Clara, Calif.). […] Samples were prepped using the NEBNext Ultra II Directional RNA Library Prep Kit for Illumina (NEB, E7760L) with Poly(A) mRNA Magnetic Isolation Module (NEB, E7490L) and NEBNext Multiplex Oligos for Illumina Unique dual (NEB, E6440L), where 10 ng-1 μg of total RNA were subjected to mRNA polyA purification. The mRNA was then fragmented and copied into first strand cDNA using reverse transciptase and dUTP mix. Samples underwent end repair and dA-Tailing step followed by ligation of NEBNext adapters. The products were purified and enriched by PCR to create the final cDNA library. Final libraries were checked for quality and quantity by TapeStation (Agilent) and qPCR using Kapa's library quantification kit for Illumina Sequencing platforms (Kapa Biosystems, KK4835). Libraries were paired-end sequenced on a […] Sequencing System (Illumina).
The quality of the raw Fastq files was checked through FastQC v0.11.8 (https://www.bioinformaties.babraham.ac.uk/projects/fastqc/). Trimmomatic v.0.35 was used to trim the low-quality reads with the parameters: SLIDINGWINDOW:4:20 MINLEN:25.12 The resulted high-quality reads were then mapped to the mouse reference genome (GRCm38.90) using HISAT2 v.2.1.0.13 Gene level quantification was performed using HTSeq-counts v0.6.0 based on the GRCm38.90 genome annotations.14 The R package DESeq2 was then used to identify significant differentially expressed genes. 15 We considered genes with adjusted P value less than 0.05 and absolute fold change larger than 2 as significant differentially expressed genes (DEGs). […] 16 The significance of the enrichment was determined by right-tailed Fisher's exact test followed by Benjamini-Hochberg multiple testing adjustment.
Mice fed CD and administered H2O served as control.

The subject of a further assay is plasma glucose. The conditions noted are these: humans, glycine ingested together with glucose; cited from earlier work.
For the next assay, the system named is circulating TG. Particulars: apoE−/− mice, chronic glycine supplementation 1 mg/g/day; cited from earlier work.
The conditions of assay [3]: obese C57BL/6 mice, chronic glycine supplementation 1 mg/g/day; cited from earlier work.
Assay [4] has as its system hemoglobin-A1c and plasma TNFR1. Particulars: T2D patients, 5 g/day for 3 months; cited from earlier work.
The conditions of assay [5]: KK-Ay mice, dietary glycine; cited from earlier work.
The conditions of assay [6]: sucrose-fed rats; cited from earlier work.
Assay [7] concerns blood glucose. Briefly: OGTT in C57BL/6J mice given glucose with glycine-based compounds. The assay is classed as in vivo.
Description: OGTT were performed in C57BL/6J mice after 12 h fasting (n=6-8).
OGTT were performed after 12 h fasting. […] Blood glucose concentrations were measured using a blood glucometer and test strips (Contour Next).
The conditions of assay [8]: NASH-diet.
Description: Body composition was assessed using nuclear magnetic resonance (NMR)-based analyzer (Minispec LF90II; Bruker Optics) at the U-M Animal Phenotyping Core. Oxygen consumption (VO2), carbon dioxide production (VCO2) and motor activity were measured using CLAMS (Columbus Instruments). Respiratory exchange ratio (RER) Is VCO2/VO2.
All measurements were performed by the University of Michigan Animal Phenotyping Core. Body fat, lean body mass, and free fluids were measured using a nuclear magnetic resonance (NMR)-based analyzer (Minispec LF90II; Bruker Optics). The analyzer is daily checked using a reference sample as recommended by the manufacture. The mice were placed individually into the measuring tube with minimum restrain. Oxygen consumption (VO2), carbon dioxide production (VCO2) and motor activity were measured using CLAMS (Columbus Instruments), an integrated open-circuit calorimeter equipped with an optical beam activity monitoring device. Mice were weighed before the measurements and individually placed into the sealed chambers (7.9″×4″×5″) with free access to food and water. The study was carried out in an experimentation room set at 20-23° C. with 12-12 h dark-light cycles (6:00 PM-6:00 AM). Measurements were carried out continuously for 48 h. During this time, animals were provided with food and water through the feeding and drinking devices located inside the chamber. VO2 and VCO2 in each chamber were sampled sequentially for 5 s in 10 min intervals and the motor activity was recorded every second in X and Z dimensions. The air flow rate through the chambers was adjusted to keep the oxygen differential around 0.3% at resting conditions. Respiratory exchange ratio (RER) was calculated as VCO2/VO2. Total energy expenditure, glucose oxidation and fat oxidation were calculated based on the values of VO2, VCO2, and the protein breakdown.
The subject of a further assay is SMAD2. Particulars: NASH-diet, liver.
In the next assay the test system is gut microbiota. The conditions noted are these: mice with established NASH.
For assay [9], the system named is blood glucose. Particulars: previous studies from the applicant's lab; cited from earlier work.
Setting [10] is: 0.5 mg/g/day DT-109, compared to the H2O controls.

Description for SMAD2: Liver samples were lysed in radioimmunoprecipitation assay lysis buffer (RIPA buffer, Thermo Scientific) supplemented with a protease/phosphatase inhibitor cocktail (Roche Applied Science). Proteins were resolved in 10% sodium dodecyl sulfate polyacrylamide gel electrophoresis (SDS-PAGE) and transferred to nitrocellulose membranes (Bio-Rad). The membranes were blocked for 1 h at room temperature in tris-buffered saline-Tween 20 (TBST) containing 5% fat-free milk and incubated with primary antibody at 4° C. overnight. The following primary antibodies were used: AGXT1 (Santa Cruz Biotechnology sa-517388, 1:500), HADHA (Proteintech 10758-1-AP, 1:1000), ACAA2 (ABcional A15778, 1:500), phospho-SMAD2 (Ser485/487, Cell Signaling, #3108S; 1:1000), SMAD2 (Cell Signaling Technology, #5339S; 1:1000), GAPDH (Santa Cruz Biotechnology so-365062; 1:2000), or β-Actin (Cell Signaling Technology #3700). The membranes were washed with TBST before incubated with IRDye-conjugated secondary antibodies (LI-COR Biosciences, 1:10000) at room temperature for 1 h. After TBST washing, bands were visualized and quantified using an Odyssey Infrared Imaging System (LI-COR Biosciences, version 2.1).
Description for gut microbiota: Total genomic DNA of the gut microbiota was extracted from fecal samples using the QIAamp DNA Stool Mini Kit (51540, Qiagen) according to the manufacturer's instructions. DNA was prepared for community analysis as previously described.17 Briefly, barcoded dual-index primers specific to the V4 region of the 16S rRNA gene were used to amplify the DNA.18 PCR reactions were composed of 5 μL of 4 μM equimolar primer set, 0.15 μL of AccuPrime Taq DNA High Fidelity Polymerase, 2 μL of 10×AccuPrime PCR Buffer II (Thermo Fisher Scientific 12346094), 11.85 μL of PCR-grade water, and 1 μL of DNA template. […] The normalized reactions were pooled and quantified using the Kapa Biosystems Library qPCR MasterMix (ROX Low) Quantification kit for Illumina platforms (KK4873). […]
DNA sequencing data was processed using Mothur according to SOP and focused primarily on α- and β-diversity based analyses. […] Constrained ordination RDA (redundancy analysis) was calculated, and the significance of environmental variables was checked by forward selection analysis. […] The principal component analysis (PCA) was plotted accordingly using Phyloseq package in R. The correlations between changes in the altered bacterial genera and NAFLD-related parameters in the liver or plasma were calculated using nonparametric Spearman's test.

For `NCC(=O)O` [glycine, reference compound], in the assay on blood glucose [1], the “Endpoint glucose levels, lower by” value is 41%; the “Non-fasting blood glucose 30 min post-gavage vs pre-gavage, decreased by” value was determined as 10%; the “Acute OGTT: blood glucose 30 min after glucose with treatment” value is “most significant effects”; the “Acute OGTT: blood glucose at later time points (60-120 min)” value (from here on “Acute OGTT: blood glucose … (60-120 min)”) is given as “significantly decreased”. In assay [2], the “MCP1 expression in EAT and SAT” value is given as “significantly suppressed”. Also, in the assay with liver transcriptome, the “TGFβ signaling and ECM remodeling pathways/genes (RNA-sequencing)” value is recorded as “attenuated”; the “Pro-inflammatory signaling regulator and cytokine genes (NFKB1/2, RELB, CCR1/2/5, TLR1/2/4, TNFRSF1A/9/12, TNFα, CCL2/5)” value was “attenuated”; the “Key genes regulating FAO (PPARα, PGC1α, ACOX1, CPT2, ACADS/M/L, HADHA/B, ACOT3/4)” value (shortened to “Key genes regulating FAO”) is listed as “reversed”. Further, the “Attenuation of the increase in plasma glucose” value in the assay on plasma glucose is recorded as more than 50%. In addition, the “Circulating TG” value with circulating TG is reported as “reduce circulating TG”. The “Glucose tolerance and fat loss” value in assay [3] was “restore glucose tolerance and accelerate fat loss”. In addition, the “Hemoglobin-A1c and plasma TNFR1” value in [4] is “reduced hemoglobin-A1c and plasma TNFR1”. Further, the “Glucose tolerance, circulating TG, ALT, HS and inflammatory infiltration” value in assay [5] is “improved glucose tolerance, lowered circulating TG and alanine-aminotransferase (ALT), while attenuating HS and inflammatory infiltration”. For the same compound, in assay [6], the “Intra-abdominal fat, plasma TG and FAO markers in hepatic mitochondria” value is “reduced intra-abdominal fat, plasma TG and increased FAO markers in hepatic mitochondria”.

Regarding `CC(C)C[C@H](N)C(=O)O` [leucine], the “Non-fasting blood glucose 30 min post-gavage vs pre-gavage, decreased by” value in the assay on blood glucose [1] was “trends towards increased blood glucose”. Further, in the assay on liver transcriptome, the “Pro-inflammatory signaling regulator and cytokine genes (NFKB1/2, RELB, CCR1/2/5, TLR1/2/4, TNFRSF1A/9/12, TNFα, CCL2/5)” value is recorded as “upregulated”; the “Key genes regulating FAO” value is “suppressed”.

Take Gly-Gly-Leu [DT-109]: the “Glucose-lowering in OGTT and in non-fasting glucose” value in the assay on blood glucose [1] (apoE−/− mice on WD, after 10 weeks, DT-109 1 mg/g/day vs equivalent leucine, glycine or H2O) is “most potent glucose-lowering effects”. In the assay with blood glucose [1], the “Endpoint glucose levels, lower by” value is 30%; the “Non-fasting blood glucose 30 min post-gavage vs pre-gavage, decreased by” value was 21%; the “Acute OGTT: blood glucose 30 min after glucose with treatment” value is recorded as “most significant effects”; the “Acute OGTT: blood glucose … (60-120 min)” value is given as “significantly decreased”. For the same compound, the “MCP1 expression in EAT and SAT” value in assay [2] was “significantly suppressed”. Also, the “Glucose-lowering effect in OGTT compared with glycine” value in the assay with blood glucose [7] (12 h fasting, glucose 2 mg/g with 0.5 mg/g compound, oral) was “lowered glucose more efficiently than glycine”. For the same compound, in the assay on blood glucose [7] (DT-109 0.5 mg/g vs leucine 0.17 or glycine 0.33 mg/g), the “Glucose-lowering effect in OGTT compared with equivalent levels of free leucine or glycine” value was “particularly when compared to equivalent levels of its individual AA”. The “Pathway analysis, NASH-diet H2O control vs treatment” value with liver transcriptome (DT-109 0.5 mg/g/day) is reported as “reversed NASH-diet-induced alterations in underlying pathways”. Moreover, in the assay on liver transcriptome, the “TGFβ signaling and ECM remodeling pathways/genes (RNA-sequencing)” value is listed as “attenuated”; the “Pro-inflammatory signaling regulator and cytokine genes (NFKB1/2, RELB, CCR1/2/5, TLR1/2/4, TNFRSF1A/9/12, TNFα, CCL2/5)” value is “attenuated”; the “Key genes regulating FAO” value was “reversed”. Moreover, in [8] (setting [10]), the Body fat entry is reported as “reduced body fat” and the Lean mass result is recorded as “preserved lean mass”. In addition, the “Respiratory exchange ratio (RER)” value in [8] (CLAMS weeks 22-23, DT-109 at 0.5 mg/g/day) is on record as “no significant differences”. In the assay with SMAD2, the “SMAD2 Ser465/467 phosphorylation” value is listed as “reduced SMAD2 Ser465/467 phosphorylation”. In the assay on gut microbiota, the “Bacterial genus Alistipes in gut microbiota” value was “increased” and the “Bacterial genus Clostridium sensu stricto in gut microbiota” value is reported as “decreased”. Moreover, the “Glucose-lowering effects (previous studies)” value with blood glucose [9] is given as “profound glucose-lowering effects”.

With Gly-Gly-[dL] [DT-110], in the assay with blood glucose [1], the “Non-fasting blood glucose 30 min post-gavage vs pre-gavage, decreased by” value is reported as 13% and the “Acute OGTT: blood glucose … (60-120 min)” value is reported as “significantly decreased”. Also, in assay [2], the “MCP1 expression in EAT and SAT” value is “significantly suppressed”; the “TNFα expression in EAT” value is given as “most significant effects”.
